Assay results: patent US20240207288A1, “METHODS OF TREATING ESOPHAGEAL STRICTURES” (Ellodi Pharmaceuticals, L.P., priority 2021, published 2024)

Test system: subjects with EoE (safety analysis set)
Experiment: Clinical trial of FP ODT: treatment-emergent adverse events
Type: in vivo, human
Method: Subjects that participated in Part 1 studies were randomized and administered a treatment selected from: • (a) 1.5 mg HS: Placebo 30 minutes after breakfast and 1.5 mg HS (at bedtime); • (b) 1.5 mg BID: 1.5 mg 30 minutes after breakfast and at bedtime; total daily dose of 3 mg; • (c) 3 mg HS: Placebo 30 minutes after breakfast and 3 mg at bedtime; and • (d) 3 mg BID: 3.0 mg 30 minutes after breakfast and at bedtime; total daily dose of 6 mg.
Patient Population: 105 subjects received at least 1 dose of study drug in Part 1 of the study safety analysis set (SAF population), and 92 subjects ([…]) of those subjects completed Week 14. […] Subjects were classified according to their randomized treatment.
Safety endpoints were measured such as Frequency of treatment-emergent adverse event (TEAEs); TEAEs leading to discontinuation; Treatment-emergent serious adverse events (SAEs); Percentage of subjects with serum cortisol level ≤5 μg/dL (≤138 nmol/L) or abnormal adrenocorticotropic hormone (ACTH) stimulation test (serum cortisol <16 μg/dL [≤440 nmol/L] at 60 minutes); The number of subjects discontinuing for HPA axis suppression will be recorded; and frequency of oral and esophageal candidiasis.

S-(fluoromethyl)-6α,9-difluoro-11β, 17-dihydroxy-16α-methyl-3-oxoandrosta-1, 4-diene-17β-carbothioate, 17-propanoate [FP]
At least 1 TEAE, (%) (FP 1.5 mg BID (n = 23)): (74) % | Maximum severity of TEAE: Mild, (%) (FP 1.5 mg BID (n = 23)): (61) % | Maximum severity of TEAE: Moderate, (%) (FP 1.5 mg BID (n = 23)): (13) % | TEAE leading to study discontinuation, (%) (FP 1.5 mg BID (n = 23)): (9) % | TEAE of special interest, (%) (FP 1.5 mg BID (n = 23)): (13) % | TEAE related to study drug, (%) (FP 1.5 mg BID (n = 23)): (22) % | At least 1 TEAE, (%) (FP 1.5 mg HS (n = 21)): (62) % | Maximum severity of TEAE: Mild, (%) (FP 1.5 mg HS (n = 21)): (52) % | Maximum severity of TEAE: Moderate, (%) (FP 1.5 mg HS (n = 21)): (5) % | Maximum severity of TEAE: Severe, (%) (FP 1.5 mg HS (n = 21)): (5) % | TEAE related to study drug, (%) (FP 1.5 mg HS (n = 21)): (10) % | At least 1 TEAE, (%) (FP 3 mg BID (n = 20)): (85) % | Maximum severity of TEAE: Mild, (%) (FP 3 mg BID (n = 20)): (60) % | Maximum severity of TEAE: Moderate, (%) (FP 3 mg BID (n = 20)): (25) % | TEAE leading to study discontinuation, (%) (FP 3 mg BID (n = 20)): (5) % | TEAE of special interest, (%) (FP 3 mg BID (n = 20)): (35) % | TEAE related to study drug, (%) (FP 3 mg BID (n = 20)): (50) % | At least 1 TEAE, (%) (FP 3 mg HS (n = 21)): (76) % | Maximum severity of TEAE: Mild, (%) (FP 3 mg HS (n = 21)): (29) % | Maximum severity of TEAE: Moderate, (%) (FP 3 mg HS (n = 21)): (43) % | Maximum severity of TEAE: Severe, (%) (FP 3 mg HS (n = 21)): (5) % | Serious TEAE, (%) (FP 3 mg HS (n = 21)): (5) % | TEAE of special interest, (%) (FP 3 mg HS (n = 21)): (5) % | TEAE related to study drug, (%) (FP 3 mg HS (n = 21)): (29) % | At least 1 TEAE, (%) (Total FP (n = 85)): 74% | Maximum severity of TEAE: Mild, (%) (Total FP (n = 85)): 51% | Maximum severity of TEAE: Moderate, (%) (Total FP (n = 85)): 21% | Maximum severity of TEAE: Severe, (%) (Total FP (n = 85)): 2 (2) % | Serious TEAE, (%) (Total FP (n = 85)): 1 (1) % | TEAE leading to study discontinuation, (%) (Total FP (n = 85)): 4% | TEAE of special interest, (%) (Total FP (n = 85)): 13% | TEAE related to study drug, (%) (Total FP (n = 85)): 25%
